Reference: PubChem BioAssay AID1963963 (Molecular Pharmacology Branch, DTP, NCI, 2024)
One block for each compound: values may come before it.

System: 958667-338-R-J2-PDC tumor spheroids viability
Assay: Anticancer human tumor 958667-338-R-J2-PDC patient-derived colon adenocarcinoma cell line growth inhibition [PI3K]
Conditions: spheroids with HUVEC and MSC; for IC50: curve of first compound; for viability, T/C: stronger effect = lower value
How it was run: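 Targeted small molecules plus PI3K inhibitors, half-log dose series from Cmax (default top 10 microM), were applied to heterotypic spheroids of cancer cells with HUVEC and MSCs. Viability indicated growth inhibition.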

[1] = second compound 0.0316 µM, first compound 0.0316 µM
[2] = second compound 0.0316 µM, first compound 0.1 µM
[3] = second compound 0.0316 µM, first compound 0.316 µM
[4] = second compound 0.0316 µM, first compound 1 µM
[5] = second compound 0.0316 µM, first compound 3.16 µM
[6] = second compound 0.0316 µM, first compound 10 µM
[7] = second compound 0.1 µM, first compound 0.0316 µM
[8] = second compound 0.1 µM, first compound 0.1 µM
[9] = second compound 0.1 µM, first compound 0.316 µM
[10] = second compound 0.1 µM, first compound 1 µM
[11] = second compound 0.1 µM, first compound 3.16 µM
[12] = second compound 0.1 µM, first compound 10 µM
[13] = second compound 0.316 µM, first compound 0.0316 µM
[14] = second compound 0.316 µM, first compound 0.1 µM
[15] = second compound 0.316 µM, first compound 0.316 µM
[16] = second compound 0.316 µM, first compound 1 µM
[17] = second compound 0.316 µM, first compound 3.16 µM
[18] = second compound 0.316 µM, first compound 10 µM
[19] = second compound 1 µM, first compound 0.0316 µM
[20] = second compound 1 µM, first compound 0.1 µM
[21] = second compound 1 µM, first compound 0.316 µM
[22] = second compound 1 µM, first compound 1 µM
[23] = second compound 1 µM, first compound 3.16 µM
[24] = second compound 1 µM, first compound 10 µM
[25] = second compound 3.16 µM, first compound 0.0316 µM
[26] = second compound 3.16 µM, first compound 0.1 µM
[27] = second compound 3.16 µM, first compound 0.316 µM
[28] = second compound 3.16 µM, first compound 1 µM
[29] = second compound 3.16 µM, first compound 3.16 µM
[30] = second compound 3.16 µM, first compound 10 µM
[31] = second compound 10 µM, first compound 0.0316 µM
[32] = second compound 10 µM, first compound 0.1 µM
[33] = second compound 10 µM, first compound 0.316 µM
[34] = second compound 10 µM, first compound 1 µM
[35] = second compound 10 µM, first compound 3.16 µM
[36] = second compound 10 µM, first compound 10 µM
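Note: spheroids exposed to compounds for seven days before readout.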

SMILES: C#Cc1c(F)ccc2cc(O)cc(-c3ncc4c(N5CC6CCC(C5)N6)nc(OCC56CCCN5CC(F)C6)nc4c3F)c12 (stereo not given) + CC(Nc1ncnc2nc[nH]c12)c1cc2cccc(Cl)c2c(=O)n1-c1ccccc1
IC50 (second compound 0.0316 µM): > 10 µM | IC50 (second compound 0.1 µM): > 10 µM | IC50 (second compound 0.316 µM): > 10 µM | IC50 (second compound 1 µM): > 10 µM | IC50 (second compound 3.16 µM): 7.83 µM | IC50 (second compound 10 µM): 8.56 µM | viability, T/C [1]: 104% | viability, T/C [2]: 99.2% | viability, T/C [3]: 109% | viability, T/C [4]: 84.9% | viability, T/C [5]: 97.5% | viability, T/C [6]: 69.7% | viability, T/C [7]: 102% | viability, T/C [8]: 109% | viability, T/C [9]: 86.8% | viability, T/C [10]: 104% | viability, T/C [11]: 85.2% | viability, T/C [12]: 77.5% | viability, T/C [13]: 84% | viability, T/C [14]: 99.3% | viability, T/C [15]: 93.5% | viability, T/C [16]: 92.8% | viability, T/C [17]: 93.9% | viability, T/C [18]: 63.5% | viability, T/C [19]: 77.4% | viability, T/C [20]: 101% | viability, T/C [21]: 90.9% | viability, T/C [22]: 84.8% | viability, T/C [23]: 106% | viability, T/C [24]: 65.1% | viability, T/C [25]: 91.4% | viability, T/C [26]: 94.2% | viability, T/C [27]: 85.3% | viability, T/C [28]: 76.5% | viability, T/C [29]: 73.2% | viability, T/C [30]: 43.6% | viability, T/C [31]: 86.3% | viability, T/C [32]: 83.2% | viability, T/C [33]: 73.1% | viability, T/C [34]: 86.9% | viability, T/C [35]: 71.5% | viability, T/C [36]: 46.4%

SMILES: C=CC(=O)N1CCN(c2nc(=O)n(-c3c(C)ccnc3C(C)C)c3nc(-c4c(O)cccc4F)c(F)cc23)C(C)C1 (stereo not given) + CC(Nc1ncnc2nc[nH]c12)c1cc2cccc(Cl)c2c(=O)n1-c1ccccc1
IC50 (second compound 0.0316 µM): > 10 µM | IC50 (second compound 0.1 µM): > 10 µM | IC50 (second compound 0.316 µM): > 10 µM | IC50 (second compound 1 µM): > 10 µM | IC50 (second compound 3.16 µM): > 10 µM | IC50 (second compound 10 µM): > 10 µM | viability, T/C [1]: 118% | viability, T/C [2]: 117% | viability, T/C [3]: 104% | viability, T/C [4]: 109% | viability, T/C [5]: 130% | viability, T/C [6]: 127% | viability, T/C [7]: 106% | viability, T/C [8]: 118% | viability, T/C [9]: 112% | viability, T/C [10]: 104% | viability, T/C [11]: 118% | viability, T/C [12]: 98% | viability, T/C [13]: 116% | viability, T/C [14]: 90.8% | viability, T/C [15]: 93.6% | viability, T/C [16]: 149% | viability, T/C [17]: 116% | viability, T/C [18]: 96.8% | viability, T/C [19]: 108% | viability, T/C [20]: 106% | viability, T/C [21]: 85.9% | viability, T/C [22]: 96.5% | viability, T/C [23]: 123% | viability, T/C [24]: 120% | viability, T/C [25]: 89.8% | viability, T/C [26]: 88.1% | viability, T/C [27]: 99.9% | viability, T/C [28]: 125% | viability, T/C [29]: 112% | viability, T/C [30]: 111% | viability, T/C [31]: 93.3% | viability, T/C [32]: 90.3% | viability, T/C [33]: 115% | viability, T/C [34]: 104% | viability, T/C [35]: 101% | viability, T/C [36]: 105%

SMILES: Cn1nccc1Nc1nccc(-c2ccn(C(CO)c3ccc(Cl)c(F)c3)c(=O)c2)n1 (stereo not given) + CC(Nc1ncnc2nc[nH]c12)c1cc2cccc(Cl)c2c(=O)n1-c1ccccc1
IC50 (second compound 0.0316 µM): > 10 µM | IC50 (second compound 0.1 µM): > 10 µM | IC50 (second compound 0.316 µM): > 10 µM | IC50 (second compound 1 µM): > 10 µM | IC50 (second compound 3.16 µM): > 10 µM | IC50 (second compound 10 µM): 8.08 µM | viability, T/C [1]: 93.3% | viability, T/C [2]: 93.3% | viability, T/C [3]: 92.1% | viability, T/C [4]: 97.6% | viability, T/C [5]: 72.2% | viability, T/C [6]: 77.8% | viability, T/C [7]: 88% | viability, T/C [8]: 106% | viability, T/C [9]: 109% | viability, T/C [10]: 69.4% | viability, T/C [11]: 73.6% | viability, T/C [12]: 63.3% | viability, T/C [13]: 91.1% | viability, T/C [14]: 105% | viability, T/C [15]: 80.6% | viability, T/C [16]: 106% | viability, T/C [17]: 76.3% | viability, T/C [18]: 60.1% | viability, T/C [19]: 93.9% | viability, T/C [20]: 87% | viability, T/C [21]: 82.7% | viability, T/C [22]: 89.6% | viability, T/C [23]: 83.5% | viability, T/C [24]: 50.7% | viability, T/C [25]: 82.9% | viability, T/C [26]: 79.9% | viability, T/C [27]: 68.3% | viability, T/C [28]: 75.4% | viability, T/C [29]: 66.8% | viability, T/C [30]: 51.4% | viability, T/C [31]: 94% | viability, T/C [32]: 94.2% | viability, T/C [33]: 67.3% | viability, T/C [34]: 87.6% | viability, T/C [35]: 66.3% | viability, T/C [36]: 44.9%

Further lines, with some results ahead:

IC50 (second compound 0.0316 µM): > 10 µM | IC50 (second compound 0.1 µM): > 10 µM | IC50 (second compound 0.316 µM): > 10 µM | IC50 (second compound 1 µM): > 10 µM | IC50 (second compound 3.16 µM): > 10 µM | IC50 (second compound 10 µM): > 10 µM
SMILES: CC(Cn1ccc(-c2ccc(C#N)c(Cl)c2)n1)NC(=O)c1cc(C(C)O)[nH]n1 (stereo not given) + CC(Nc1ncnc2nc[nH]c12)c1cc2cccc(Cl)c2c(=O)n1-c1ccccc1
viability, T/C [1]: 85.4% | viability, T/C [2]: 105% | viability, T/C [3]: 85.5% | viability, T/C [4]: 106% | viability, T/C [5]: 114% | viability, T/C [6]: 86.5% | viability, T/C [7]: 100% | viability, T/C [8]: 97.5% | viability, T/C [9]: 99.9% | viability, T/C [10]: 99.2% | viability, T/C [11]: 99.4% | viability, T/C [12]: 79.1% | viability, T/C [13]: 90.7% | viability, T/C [14]: 109% | viability, T/C [15]: 121% | viability, T/C [16]: 108% | viability, T/C [17]: 85.8% | viability, T/C [18]: 109% | viability, T/C [19]: 119% | viability, T/C [20]: 115% | viability, T/C [21]: 99.8% | viability, T/C [22]: 112% | viability, T/C [23]: 101% | viability, T/C [24]: 73.7% | viability, T/C [25]: 107% | viability, T/C [26]: 105% | viability, T/C [27]: 121% | viability, T/C [28]: 82.8% | viability, T/C [29]: 101% | viability, T/C [30]: 98.5% | viability, T/C [31]: 77.2% | viability, T/C [32]: 98.7% | viability, T/C [33]: 86.7% | viability, T/C [34]: 84.1% | viability, T/C [35]: 91.9% | viability, T/C [36]: 97.7%

IC50 (second compound 0.0316 µM): > 10 µM | IC50 (second compound 0.1 µM): 4.38 µM | IC50 (second compound 0.316 µM): 1.37 µM | IC50 (second compound 1 µM): 3.2 µM | IC50 (second compound 3.16 µM): 3.6 µM | IC50 (second compound 10 µM): 1.84 µM
SMILES: Cn1ncc(Cl)c1-c1cc(C(=O)NC(CN)Cc2cccc(F)c2)sc1Cl (stereo not given) + CC(Nc1ncnc2nc[nH]c12)c1cc2cccc(Cl)c2c(=O)n1-c1ccccc1
viability, T/C [1]: 87.7% | viability, T/C [2]: 87.1% | viability, T/C [3]: 100% | viability, T/C [4]: 60.6% | viability, T/C [5]: 60.5% | viability, T/C [6]: 43.4% | viability, T/C [7]: 111% | viability, T/C [8]: 81.1% | viability, T/C [9]: 84.7% | viability, T/C [10]: 64.1% | viability, T/C [11]: 59% | viability, T/C [12]: 37.5% | viability, T/C [13]: 93.7% | viability, T/C [14]: 89.9% | viability, T/C [15]: 82.1% | viability, T/C [16]: 50.7% | viability, T/C [17]: 52.2% | viability, T/C [18]: 37.2% | viability, T/C [19]: 95.6% | viability, T/C [20]: 87.3% | viability, T/C [21]: 97.1% | viability, T/C [22]: 75.9% | viability, T/C [23]: 51.4% | viability, T/C [24]: 39.4% | viability, T/C [25]: 88.4% | viability, T/C [26]: 89.1% | viability, T/C [27]: 85.8% | viability, T/C [28]: 79.7% | viability, T/C [29]: 52.1% | viability, T/C [30]: 32.6% | viability, T/C [31]: 82.3% | viability, T/C [32]: 82.3% | viability, T/C [33]: 65.9% | viability, T/C [34]: 59.4% | viability, T/C [35]: 42.9% | viability, T/C [36]: 28.2%
